Reference: patent EP0134302A1, “Pharmaceutical compositions for treating resistant bacteria including anaerobes” (Bristol-Myers Company, priority 1983, dated 1985)
In brackets after ≈: the same amount, converted by molar mass. Several values for one entry are separate records, joined by “and”; a condition that tells them apart may be missing. Equal values may be shown once. Read-outs that look alike come from different tables or passages of the source.

Columns and labels:
[1] = Blood concentrations of BL-P 2013 after oral administration; format: in vivo; conditions: mice; oral administration of doses of 25 to 100 mg./kg. of body weight
[2] = system: Providencia rettgeri; experiment: microbe, parasite or virus in culture; format: cell-based
[3] = system: Bacteroides fragilis; experiment: microbe, parasite or virus in culture; format: cell-based
[4] = system: P. aeruginosa; experiment: microbe, parasite or virus in culture; format: cell-based; conditions: Pseudomonas aeruginosa
[5] = system: C. freundii; experiment: microbe, parasite or virus in culture; format: cell-based
[6] = system: Morganella morganii; experiment: microbe, parasite or virus in culture; format: cell-based
[7] = system: Proteus vulgaris; experiment: microbe, parasite or virus in culture; format: cell-based
[8] = system: Providencia stuartii; experiment: microbe, parasite or virus in culture; format: cell-based
[9] = system: S. aureus; experiment: microbe, parasite or virus in culture; format: cell-based
[10] = system: Clostridium perfringens; experiment: microbe, parasite or virus in culture; format: cell-based
[11] = system: Enterobacter cloacae; experiment: microbe, parasite or virus in culture; format: cell-based
[12] = system: Enterobacter aerogenes; experiment: microbe, parasite or virus in culture; format: cell-based; conditions: Klebsiella aerogenes
[13] = system: Serratia marcescens; experiment: microbe, parasite or virus in culture; format: cell-based
[14] = system: B. fragilis; conditions: cited from earlier work
[15] = Table 1, C. perfringens, 3 strains (first group), geometric mean, 2 tests, BL-P 2013 as K salt
[16] = Table 1, C. perfringens, 3 strains (second group), geometric mean, 2 tests, BL-P 2013 as K salt
[17] = Table 1, C. perfringens, 8 strains, geometric mean, 2 tests, BL-P 2013 as K salt
[18] = Table 3, C. perfringens, 1 strain
[19] = Table 3, C. perfringens, 2 strains, geometric mean
[20] = Table 3, C. perfringens, 4 strains, geometric mean
[21] = Table 3, C. perfringens, 6 strains, geometric mean

| SMILES | blood concentrations of BL-P 2013 [1] | MIC [4] | MIC [7] | MIC [9] | MIC ([9]; Staphylococcus aureus) | MIC [10, 15] | MIC [10, 16] | MIC [10, 17] | MIC [10, 18] | MIC [10, 19] | MIC [10, 20] | MIC [10, 21] | also measured |
| --- | --- | --- | --- | --- | --- | --- | --- | --- | --- | --- | --- | --- | --- |
| CC(C)(C)C(=O)OCOC(=O)[C@@H]1N2C(=O)C[C@H]2S(=O)(=O)[C@@]1(C)CCl | Operative blood concentrations |  |  |  |  |  |  |  |  |  |  |  |  |
| C[C@]1(CCl)[C@H](C(=O)OC2OC(=O)c3ccccc32)N2C(=O)C[C@H]2S1(=O)=O (stereo partly shown) | Operative blood concentrations |  |  |  |  |  |  |  |  |  |  |  |  |
| C[C@]1(CCl)[C@H](C(=O)O)N2C(=O)C[C@H]2S1(=O)=O [BL-P 2013] | Operative blood concentrations | > 125 µg/mL | > 125 µg/mL | 73 µg/mL and 96 µg/mL and 85 µg/mL | 100 µg/mL (≈ 374 µM) | > 125 µg/mL | 89 µg/mL | > 120 µg/mL | > 32 µg/mL | > 32 µg/mL | 27 µg/mL (≈ 101 µM) | > 32 µg/mL | MIC [2]: > 125 µg/mL; MIC ([3]; Bacteroides fragilis): 21 µg/mL (≈ 78.4 µM); MIC ([5]; Citrobacter freundii): > 125 µg/mL; MIC [6]: > 125 µg/mL; MIC [8]: > 125 µg/mL; MIC [11]: > 125 µg/mL; MIC [12]: > 125 µg/mL; MIC [13]: > 125 µg/mL |
| CC1(C)[C@H](C(=O)O)N2C(=O)C[C@H]2S1(=O)=O [CP-45,899, Penicillanic acid-1,1-dioxide] |  |  |  |  |  |  |  |  |  |  |  |  | synergism with ampicillin against B. fragilis ([14]; Fass, Abstract No. 605, 1980): highly synergistic |
| CC(C)(O/N=C(\C(=O)N[C@@H]1C(=O)N2C(C(=O)[O-])=C(C[n+]3ccccc3)CS[C@H]12)c1csc(N)n1)C(=O)O [Ceftazidime, reference compound] |  | 8 µg/mL (≈ 14.6 µM) | 0.063 µg/mL (≈ 0.115 µM) | 8.6 µg/mL and 9.7 µg/mL | 8 µg/mL (≈ 14.6 µM) | 0.04 µg/mL | 0.7 µg/mL | 3.3 µg/mL | 2 µg/mL (≈ 3.66 µM) | 5.7 µg/mL (≈ 10.4 µM) | 0.11 µg/mL (≈ 0.201 µM) | 0.1 µg/mL (≈ 0.183 µM) | susceptibility of Bacteroides fragilis strains [3]: resistant; MIC [5]: 63 µg/mL (≈ 115 µM); activity against B. fragilis ([14]; Wise et al. 1980): low activity |
